{
  "source": "patent US20050020668A1",
  "about": "“Combination comprising S-[2-([[1-(2-ethylbutyl)cyclohexyl] carbonyl]amino)phenyl] 2-methylpropanethioate and an HMG CoA reductase inhibitor” (Japan Tobacco Inc., priority 2003, published 2005)",
  "key": {"[1]": {"test_system": "male Japanese white rabbits receiving a high-cholesterol diet", "experiment": "Atherogenic index in rabbits receiving a high-cholesterol diet", "assay_type": "in vivo, rabbit", "settings": "control group = 100%, in 0.2% cholesterol diet for 7 days: Compound I 0.5%", "method": "Prior to commencement of the study, male Japanese white rabbits (KITAYAMA LABES Co., Ltd.) received a normal diet (RC-4, manufactured by Oriental Bio-Service Inc.) (Time Period 1) and water ad libitum. For preliminary feeding, male Japanese white rabbits were provided with a high cholesterol diet comprising 100 g/day per rabbit of RC-4 containing 0.2% cholesterol (manufactured by Oriental Bio-Service Inc.) for 4 weeks (Time Period 2). […] For 7 days (Time Period 3), each group was administered a high cholesterol diet comprising 100 g/day per rabbit of RC-4 containing 0.2% cholesterol and one of the following: • (1) Control (no additional components) • (2) Compound I (0.5%) • (3) Simvastatin (extracted and purified from LipovasTM Tablets-5, Banyu Pharmaceutical Co.) (0.075%) • (4) Atorvastatin calcium trihydrate (extracted and purified from LipitorTM Tablets-10, Pfizer Inc.) (0.075%) • (5) Rosuvastatin calcium (extracted and purified from CrestorTM Tablets, Astra Zeneca) (0.025%) • (6) Compound I (0.5%)+simvastatin (0.075%) • (7) Compound I (0.5%)+atorvastatin calcium trihydrate (0.075%) • (8) Compound I (0.5%)+rosuvastatin calcium (0.025%) […] Atherogenic index was calculated as follows: [(total cholesterol content-HDL cholesterol content)/HDL cholesterol content]. […] A similar experiment was conducted to evaluate the effect of the administration of Compound I and pravastatin sodium ([…] Ltd.) on 12-week old male Japanese white rabbits receiving a high-cholesterol diet."}, "[2]": {"test_system": "patients with type II hyperlipidemia", "experiment": "Clinical study: Compound I added to pravastatin sodium therapy, lipid parameters", "assay_type": "in vivo, human", "settings": "for Mean percent change of HDL-C from levels before administration of Compound I / Mean percent change of LDL-C from levels before administration of Compound I / Mean percent change of LDL-C/HDL-C ratio from levels before administration of Compound I / Mean percent change of TC/HDL-C ratio from levels before administration of Compound I: Visit 5 or 6 vs average of Visits 3 and 4, per protocol", "source_text": "(§1) This example describes a multi-center, randomized, double-blind, placebo-controlled, parallel group study designed to evaluate the therapeutic effect of the combination of S-[2-([[1-(2-ethylbutyl)cyclohexyl]carbonyl]amino)phenyl]2-methylpropanethioate (Compound I) and pravastatin sodium in patients with hyperlipidemia.\nApproximately 200 patients with type II hyperlipidemia were enrolled in the study to ensure that about 150 patients (about 50 patients per treatment group) completed the study. The patients met the following criteria: • (i) LDL-C>4.0 mmol/L (160 mg/dL), • (ii) HDL-C<1.6 mmol/L (60 mg/dL), • (iii) triglycerides<4.5 mmol/L (400 mg/dL), and • (iv) age 18-65 years.\n(§2) The total study duration was 16 weeks, which consisted of three periods. During Period 1, the first 8 weeks of the study, 40 mg of pravastatin sodium was taken once daily at bedtime by all enrolled patients. Patients were then randomized to receive placebo or 300 mg or 600 mg of Compound I once daily following breakfast for Period 2, the next 4-week period, in addition to the continued pravastatin sodium treatment. During Period 3, the last 4 weeks of the study, pravastatin sodium was administered alone.\nEach pravastatin sodium tablet comprised 40 mg of pravastatin sodium that was provided as a branded commercial product (Selektine™, Bristol-Myers Squibb B.V.). Each Compound I tablet contained 300 mg of Compound I and was supplied as a white oval tablet that is identical in appearance to the placebo tablet. The uncoated white tablets comprising Compound I were prepared using standard tableting procedures. The tablets comprised 300 mg of Compound I, 18 mg of hydroxypropylmethyl cellulose 2910 as a binder, 18 mg of talc and 1.2 mg of magnesium stearate as lubricants, and 119.8 mg of crospovidone and 90 mg of low-substituted hydroxypropyl cellulose as disintegrants.\nAll patients received 2 uncoated white tablets, such that each patient received either (a) one 300 mg Compound I tablet and one placebo tablet, (b) two 300 mg Compound I tablets, or (c) two placebo tablets during Period 2.\n(§3) Blood samples were taken at Visit 1 (−10 weeks relative to commencement of treatment with Compound I or placebo) to determine eligibility, and at Visit 2 (−8 weeks; commencement of treatment with pravastatin sodium), Visit 3 (−2 weeks), Visit 4 (commencement of treatment with Compound I or placebo), Visit 5 (+2 weeks after commencement of treatment with Compound I or placebo), Visit 6 (+4 weeks; end of treatment with Compound I or placebo), and Visit 7 (+8 weeks; end of treatment with pravastatin sodium). Each blood sample was tested for levels of lipid parameters (e.g., total cholesterol, triglycerides, HDL-C, LDL-C), CETP activity and mass, the plasma concentration of Compound I (trough level), as well as laboratory safety parameters (e.g., urinalysis, biochemistry, and hematology).\nEfficacy analyses included both descriptive summary and statistical modeling, such as analysis of variance (ANOVA) or analysis of covariance (ANCOVA). The descriptive summary included frequencies and percentages for categorical variables and statistics such as the number of available observations, mean, median, standard deviation, minimum, and maximum for all variables.\nTo determine the effect of the administration of Compound I on a patient receiving HMG CoA reductase inhibitor therapy, the mean values of HDL-C, LDL-C, TC/HDL-C ratio, LDL-C/HDL-C ratio, and CETP activity before administration of Compound I (average of values at Visits 3 and 4) and after the administration of Compound I (Visit 5 or 6) were compared. An ANOVA model containing treatment and center effects was used. […]"}, "CETP": {"target": "T1, CETP (Homo sapiens, UniProt P11597)", "T1 construct": "from tissue; host or cells: blood (plasma) samples of hyperlipidemic patients", "T1 sequence (P11597 18-493)": "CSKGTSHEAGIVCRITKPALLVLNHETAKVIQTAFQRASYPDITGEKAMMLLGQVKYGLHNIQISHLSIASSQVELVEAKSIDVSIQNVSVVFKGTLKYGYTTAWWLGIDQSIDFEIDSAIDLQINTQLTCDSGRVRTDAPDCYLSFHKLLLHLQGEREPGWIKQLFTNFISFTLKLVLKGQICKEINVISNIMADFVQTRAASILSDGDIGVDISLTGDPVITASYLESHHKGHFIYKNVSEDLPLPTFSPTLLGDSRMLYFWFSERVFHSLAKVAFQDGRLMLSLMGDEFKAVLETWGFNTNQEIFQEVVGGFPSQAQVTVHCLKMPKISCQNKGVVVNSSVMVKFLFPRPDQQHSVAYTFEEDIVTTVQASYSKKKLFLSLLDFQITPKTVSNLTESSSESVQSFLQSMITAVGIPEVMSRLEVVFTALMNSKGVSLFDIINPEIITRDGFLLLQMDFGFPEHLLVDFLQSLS", "experiment": "Clinical study: Compound I added to pravastatin sodium therapy, CETP activity in blood samples", "assay_type": "in vivo", "settings": "for Mean percent change of CETP activity from levels before administration of Compound I: Visit 5 or 6 vs average of Visits 3 and 4, per protocol; for Decrease in CETP activity relative to levels achieved by pravastatin sodium alone: patients receiving pravastatin sodium therapy", "method": "CETP activity is measured essentially as described in Tollefson et al., Methods Enzymol., 129, 797-816 (1986), and Kato et al., J. Biol. Chem., 264, 4082-4087 (1989). Preferably, the CETP activity at 2 weeks (or 4 weeks, 8 weeks, 12 weeks, or six months) post-treatment initiation is decreased by about 5% or more relative to CETP activity pretreatment (e.g., about 7.5% or more, about 10% or more, about 15% or more, about 20% or more, about 25% or more, about 30% or more, about 35% or more, about 40% or more, about 45% or more, about 50% or more, about 55% or more, about 60% or more, or about 65% or more).\nas §1, §2\nas §3, with “hematology). […]” for “hematology).”\nTable 2 describes the percent change in HDL-C, LDL-C, TC/HDL-C ratio, LDL-C/HDL-C ratio, and CETP activity from the values of patients receiving pravastatin sodium therapy (average of Visit 3 and 4 values) to the values following administration of Compound I or placebo and pravastatin sodium (Visit 5 or 6). P values were determined by comparing the groups administered Compound I to the placebo group using an ANOVA model with percent change as the dependent variable and treatment and center as the fixed effects. […]"}, "[3]": {"settings": "Table 3 experiment, simvastatin 0.075%, atorvastatin calcium trihydrate 0.075%, rosuvastatin calcium 0.025%, blood 8 hours after feeding on Day 7"}, "[4]": {"settings": "Table 4 experiment, pravastatin sodium 0.075%"}, "[5]": {"settings": "300 mg Compound I once daily + 40 mg pravastatin sodium, n = 45"}, "[6]": {"settings": "300 mg treatment group, patients receiving pravastatin sodium therapy"}, "[7]": {"settings": "600 mg Compound I once daily + 40 mg pravastatin sodium, n = 42"}, "[8]": {"settings": "600 mg treatment group, patients receiving pravastatin sodium therapy"}},
  "note": "Marks after values point to notes of the source that are not given here.",
  "data": [
    {"smiles": "CC(C)c1nc(N(C)S(C)(=O)=O)nc(-c2ccc(F)cc2)c1/C=C/[C@@H](O)C[C@@H](O)CC(=O)[O-].CC(C)c1nc(N(C)S(C)(=O)=O)nc(-c2ccc(F)cc2)c1/C=C/[C@@H](O)C[C@@H](O)CC(=O)[O-].[Ca+2]", "note": "[Rosuvastatin calcium]", "values": [
      {"measurement": "Atherogenic Index (%)", "setting": "[1]; [3]", "value": 81, "unit": "%"}
    ]},
    {"smiles": "CCC(CC)CC1(C(=O)Nc2ccccc2SC(=O)C(C)C)CCCCC1", "note": "[Compound I, S-[2-([[1-(2-ethylbutyl)cyclohexyl]carbonyl]amino)phenyl]2-methylpropanethioate]", "values": [
      {"measurement": "Atherogenic Index (%)", "setting": "[1]; [3]", "value": 54, "unit": "%"},
      {"measurement": "Atherogenic Index (%)", "setting": "[1]; [4]", "value": 60, "unit": "%"},
      {"measurement": "Mean percent change of HDL-C from levels before administration of Compound I", "setting": "[2]; [5]", "value": "12.96* %"},
      {"measurement": "Mean percent change of LDL-C from levels before administration of Compound I", "setting": "[2]; [5]", "value": 1.57, "unit": "%"},
      {"measurement": "Mean percent change of LDL-C/HDL-C ratio from levels before administration of Compound I", "setting": "[2]; [5]", "value": "−10.31^† %"},
      {"measurement": "Mean percent change of TC/HDL-C ratio from levels before administration of Compound I", "setting": "[2]; [5]", "value": "−8.09^† %"},
      {"measurement": "Decrease in LDL-C/HDL-C ratio relative to levels achieved by pravastatin sodium alone", "setting": "[2]; [6]", "value": "about 10%"},
      {"measurement": "Decrease in TC/HDL-C ratio relative to levels achieved by pravastatin sodium alone", "setting": "[2]; [6]", "value": "about 8%"},
      {"measurement": "Increase in HDL-C levels relative to levels achieved by pravastatin sodium alone", "setting": "[2]; [6]", "value": "about 13%"},
      {"measurement": "Mean percent change of HDL-C from levels before administration of Compound I", "setting": "[2]; [7]", "value": "28.43* %"},
      {"measurement": "Mean percent change of LDL-C from levels before administration of Compound I", "setting": "[2]; [7]", "value": "−7.91^‡ %"},
      {"measurement": "Mean percent change of LDL-C/HDL-C ratio from levels before administration of Compound I", "setting": "[2]; [7]", "value": "−26.03* %"},
      {"measurement": "Mean percent change of TC/HDL-C ratio from levels before administration of Compound I", "setting": "[2]; [7]", "value": "−18.72* %"},
      {"measurement": "Decrease in LDL-C levels relative to level achieved by pravastatin sodium alone", "setting": "[2]; [8]", "value": "about 8%"},
      {"measurement": "Decrease in LDL-C/HDL-C ratio relative to levels achieved by pravastatin sodium alone", "setting": "[2]; [8]", "value": "about 26%"},
      {"measurement": "Decrease in TC/HDL-C ratio relative to levels achieved by pravastatin sodium alone", "setting": "[2]; [8]", "value": "about 19%"},
      {"measurement": "Increase in HDL-C levels relative to levels achieved by pravastatin sodium alone", "setting": "[2]; [8]", "value": "about 28%"},
      {"measurement": "Mean percent change of CETP activity from levels before administration of Compound I", "setting": "CETP; [5]", "value": "−18.10* %"},
      {"measurement": "Decrease in CETP activity relative to levels achieved by pravastatin sodium alone", "setting": "CETP; 300 mg treatment group", "value": "about 18%"},
      {"measurement": "Mean percent change of CETP activity from levels before administration of Compound I", "setting": "CETP; [7]", "value": "−31.62* %"},
      {"measurement": "Decrease in CETP activity relative to levels achieved by pravastatin sodium alone", "setting": "CETP; 600 mg treatment group", "value": "about 32%"}
    ]},
    {"smiles": "CC[C@H](C)C(=O)O[C@H]1C[C@H](O)C=C2C=C[C@H](C)[C@H](CC[C@@H](O)C[C@@H](O)CC(=O)O)[C@H]21", "note": "[Pravastatin sodium]", "values": [
      {"measurement": "Atherogenic Index (%)", "setting": "[1]; [4]", "value": 40, "unit": "%"}
    ]},
    {"smiles": "CC(C)c1c(C(=O)Nc2ccccc2)c(-c2ccccc2)c(-c2ccc(F)cc2)n1CC[C@@H](O)C[C@@H](O)CC(=O)O", "note": "[Atorvastatin calcium trihydrate]", "values": [
      {"measurement": "Atherogenic Index (%)", "setting": "[1]; [3]", "value": 49, "unit": "%"}
    ]},
    {"smiles": "CCC(C)(C)C(=O)O[C@H]1C[C@@H](C)C=C2C=C[C@H](C)[C@H](CC[C@@H]3C[C@@H](O)CC(=O)O3)[C@H]21", "note": "[Simvastatin]", "values": [
      {"measurement": "Atherogenic Index (%)", "setting": "[1]; [3]", "value": 51, "unit": "%"}
    ]}
  ]
}
